In patent US11753373B2, “Protease inhibitors as antivirals” (priority 2021, dated 2023):
Like-named read-outs stand apart in the source and are kept apart here.

Assays:
[1] = format: in vitro ADME, Human; details: extraction ratio, compound at 1 uM, human liver microsomes 0.5 mg/mL
Protocol: (§1) Metabolic stability of novel protease inhibitors was determined via liver microsomal stability assay. Human, mouse, SD rat, beagle dog or monkey liver microsomes were incubated with the test compound for 5 to 60 minutes at 37° C., and then the remaining parent compound was quantified by LC-MS/MS. Percentage of the test compound remaining, half-life (t1/2), in vitro intrinsic clearance (CLint, in vitro), in vivo intrinsic clearance (CLint, in vivo), hepatic clearance (CLh) and extraction ratio (ER) were calculated.
(§2) Procedure: The assay was done as described in Baranczewski, P. et al. (2006) Pharmacological Reports 58:453-472; Pearson, P. and Wienkers, L. (2008) Handbook of Drug Metabolism, 2nd Edition. CRC Pres, P.478; and Venkatesh, P. et al. (2007) Biol. Pharm. Bull. 30:1021-2024. 0.625 mg/mL liver microsomes solution was prepared by mixing 2325 μL 100 mM of K-phosphate buffer (pH 7.4) containing 2.5 mM of MgCl2, 1.25 mM of EDTA, and 75 μL microsomes (20 mg/mL) in a vial for each species.
(§3) Positive control compound: (±) Verapamil hydrochloride (Cat No.: V4629; Lot No.: MKBV4993V; Source: Sigma)
40 μL aliquots of the liver microsome/test compound mixture were dispensed into 96-well plate in triplicate and pre-warmed the mixture for 5 minutes at 37° C. Then, 10 μL of 5 mM NADPH solution was added to each well to initiate the reaction, and gently mixed. The samples were incubated at 37° C. with gentle shaking.
(§4) For 0-min samples, 200 μL of ACN containing internal standard was added to 40 μL of liver microsome/test compound mixture, followed by addition of 5 mM NADPH, and mixed gently.
(§5) For negative control: 40 μL of liver microsome/test compound mixture was incubated at 37° C. with gentle shaking for 60 minutes, followed by addition of 200 μL ACN containing 1% FA and internal standard and 10 μL of 5 mM NADPH, mixed gently.
(§6) All samples were centrifuged at 4° C. for 20 minutes at 4,000 rpm. Then, 100 μL of the supernatant from each sample was transferred to a new 96-well plate and 100 μL of ultrapure water containing 1% FA was added to each well, and mixed gently. Samples were analyzed by LC-MS/MS.
(§7) Data Analysis: Peak area ratio (Peak Area of test compound/Peak Area of internal standard) was used to represent the concentration of compound in each sample. The remaining percentage (% Remaining) at appointed time points was calculated versus the concentration of compound at 0 min. The Ln value of the remaining percentage was linearly fitted against the incubation time.
(§8) The half-life and clearance were calculated using the following equations:
(§9) Determined percent of the remaining test compound: % remaining=[area at tx/average areas at t0]×100 (1) % metabolized=[100−% remaining] (2)
(§10) Calculated the half-life (t1/2) using the slope (k) of the log-linear regression from the concentration of remaining parent compound versus time (min) relationship: t1/2 (min)=−ln 2/k. (3)
(§11) Clint, in vitro (mL/min/mg) Clint,in vitro=k/c,(c:Liver microsome concentration in the incubation system) (4)
(§12) Hepatic Clearance (CLh) CLh=Clint,in vivo*Hepatic Blood Flow (mL/min/kg)/(Hepatic Blood Flow (mL/min/kg)+Clint,in vivo) (6)
(§13) Extraction ratio (ER): ER=CLint,in vivo/(Qh+CLint,in vivo)*100,Qh:liver blood flow (7)

[2] = format: in vitro ADME; details: extraction ratio, compound at 1 uM; for Liver Microsomal Stability (ER) SD rat: SD rat liver microsomes 0.5 mg/mL; for Liver Microsomal Stability (ER) Beagle dog: beagle dog liver microsomes 0.5 mg/mL; for Liver Microsomal Stability (ER) Monkey: monkey liver microsomes 0.5 mg/mL; for Liver Microsomal Stability (ER) Mouse: mouse liver microsomes 0.5 mg/mL
Protocol: as §1, §2, §3
40 μL aliquots of the liver microsome/test compound mixture were dispensed into 96-well plate in triplicate and pre-warmed the mixture for 5 minutes at 37° C. Then, 10 μL of 5 mM NADPH solution was added to each well to initiate the reaction, and gently mixed. The samples were incubated at 37° C. with gentle shaking. (Final concentrations: compound=1 μM; liver microsomes protein=0.5 mg/mL; MgCl2=2 mM; EDTA=1 mM; ACN=0.1%; DMSO=0.05%).
as §4, §5, §6, §7, §8, §9, §10, §11, §12, §13

[3] = target: SARS-CoV-2 M^pro (3CL protease) (Severe acute respiratory syndrome coronavirus 2 (2019-nCoV) (SARS-CoV-2), UniProt P0DTD1); format: biochemical; details: read-out: SARS-CoV-2M^pro inhibition IC50
SARS-CoV-2 = experiment: Anti-viral in vitro PRNT assay in Vero E6 cells; format: cell-based; details: Vero E6 cells, 1000 pfu, 3 days, plaque reduction; read-out: anti-SARS-CoV2 (PRNT) in Vero E6 EC50
[4] = mouse oral PK, female Balb/c, 40 mg/kg single dose
[5] = wild type Mpro 17 nM, substrate 40 uM

| SMILES | Liver Microsomal Stability (ER) Human [1] | Liver Microsomal Stability (ER) SD rat [2] | Liver Microsomal Stability (ER) Beagle dog [2] | Liver Microsomal Stability (ER) Monkey [2] | Liver Microsomal Stability (ER) Mouse [2] | IC50 [3] | IC50 [3, 5] | EC50 (SARS-CoV-2) | F % (bioavailability) [4] | AUC0-t ([4]; plasma) | Cmax ([4]; plasma) | Tmax ([4]; plasma) | t1/2 ([4]; plasma) |
| --- | --- | --- | --- | --- | --- | --- | --- | --- | --- | --- | --- | --- | --- |
| CC(C)C[C@H](NC(=O)c1cc2c(F)cccc2[nH]1)C(=O)N[C@@H](C[C@@H]1CCNC1=O)C(=O)CCl [Compound A-3-d, (2S)—N-[(2S)-4-chloro-3-oxo-1-[(3S)-2-oxopyrrolidin-3-yl]butan-2-yl]-2-[(4-fluoro-1H-indol-2-yl)formamido]-4-methylpentanamide] | 0.84 | 0.77 | 0.78 | 0.72 | 0.58 | 335 nM |  |  |  |  |  |  |  |
| Cc1cccc2[nH]c(C(=O)N[C@@H](CC(C)C)C(=O)N[C@H](C#N)C[C@@H]3CCNC3=O)cc12 [Compound A-4-b] | 0.02 | 0.20 | 0.06 | 0.43 | 0.47 |  | 172 nM |  |  |  |  |  |  |
| Cc1cccc2[nH]c(C(=O)N[C@@H](CC(C)C)C(=O)N[C@@H](C[C@@H]3CCNC3=O)C(=O)CCl)cc12 [Compound A-4-c, (2S)—N-[(2S)-4-chloro-3-oxo-1-[(3S)-2-oxopyrrolidin-3-yl]butan-2-yl]-4-methyl-2-[(4-methyl-1H-indol-2-yl)formamido]pentanamide] | 0.67 | 0.70 | 0.72 | 0.69 | 0.81 | 1120 nM |  |  |  |  |  |  |  |
| COc1cccc2[nH]c(C(=O)N[C@@H](CC(C)C)C(=O)N[C@@H](C[C@@H]3CCNC3=O)C(=O)CCl)cc12 [Compound A-5-c, (2S)—N-[(2S)-4-chloro-3-oxo-1-[(3S)-2-oxopyrrolidin-3-yl]butan-2-yl]-2-[(4-methoxy-1H-indol-2-yl)formamido]-4-methylpentanamide] | 0.89 | 0.74 | 0.80 | 0.79 | 0.84 | 359 nM |  |  |  |  |  |  |  |
| CC1(C)[C@@H]2[C@@H](C(=O)N[C@H](C#N)C[C@@H]3CCNC3=O)N(C(=O)[C@@H](NC(=O)C(F)(F)F)C3CC3)C[C@@H]21 [Compound D-2-a] | 0.05 | 0.03 | −0.04 |  | 0.13 |  | 24 nM |  |  |  |  |  |  |
| CC(C)C(=O)N[C@H](C(=O)N1C[C@H]2[C@@H]([C@H]1C(=O)N[C@H](C#N)C[C@@H]1CCNC1=O)C2(C)C)C1CC1 [Compound D-2-b] | 0.08 | 0.00 | 0.06 |  | 0.10 |  | 42.5 nM |  |  |  |  |  |  |
| CC1(C)[C@@H]2[C@@H](C(=O)N[C@H](C#N)C[C@@H]3CCNC3=O)N(C(=O)[C@@H](NC(=O)C3CC3)C3CC3)C[C@@H]21 [Compound D-2-c] |  |  |  |  |  | 69.7 nM |  |  |  |  |  |  |  |
| CC1(C)[C@@H]2[C@@H](C(=O)N[C@H](C#N)C[C@@H]3CCNC3=O)N(C(=O)[C@@H](NC(=O)C(F)F)C3CC3)C[C@@H]21 [Compound D-2-d] | 0.03 | 0.05 | 0.05 |  | 0.18 |  | 58.7 nM |  |  |  |  |  |  |
| CC1(C)[C@@H]2[C@@H](C(=O)N[C@H](C#N)C[C@@H]3CCCNC3=O)N(C(=O)[C@@H](NC(=O)C(F)F)C3CC3)C[C@@H]21 [Compound D-2-e] | 0.09 | 0.04 | −0.03 |  | 0.17 |  | 7.02 nM |  |  |  |  |  |  |
| CC(C)(C)[C@H](NC(=O)C(F)F)C(=O)N1C[C@H]2[C@@H]([C@H]1C(=O)N[C@H](C#N)C[C@@H]1CCNC1=O)C2(C)C [Compound D-3-b] | 0.01 | 0.02 | −0.01 |  | 0.26 |  |  | 3570 nM | 20.2% | 3768 ng·h/mL | 1190 ng/mL | 1 h | 1.86 h |
| CC(C)C[C@H](NC(=O)c1cc2ccccc2[nH]1)C(=O)N1C[C@H]2[C@@H]([C@H]1C(=O)N[C@H](C#N)C[C@@H]1CCNC1=O)C2(C)C [Compound G-1-b] | 0.38 | 0.33 | 0.33 | 0.51 | 0.16 |  | 377 nM |  |  |  |  |  |  |
| CC(C)C[C@H](NC(=O)c1cc2ccccc2[nH]1)C(=O)N1C[C@H]2[C@@H]([C@H]1C(=O)N[C@@H](C#N)C[C@@H]1CCNC1=O)C2(C)C [Compound G-1-c] | 0.67 | 0.30 | 0.30 | 0.58 | 0.27 |  | 964 nM |  |  |  |  |  |  |
| CC(C)C[C@H](NC(=O)c1cc2ccccc2[nH]1)C(=O)N1C[C@H]2[C@@H]([C@H]1C(=O)N[C@H](C(=O)CCl)C(C)(C)C)C2(C)C [Compound G-3-c] |  |  |  |  |  |  | > 10000 nM |  |  |  |  |  |  |
